Measured values published in US20260014278A1, “HYBRID PEPTIDE DENDRIMER SYSTEMS AND EXTRAHEPATIC DELIVERY” (NUNTIUS THERAPEUTICS LIMITED, priority 2022, published 2026).

Key:
[1] = system: lung and spleen; test: Luciferase mRNA expression in mouse tissues after intravenous administration (bioluminescence); type: in vivo, Balb/c mice; conditions: 6 hours, DOTMA/DOPE w/w=23:1 to mRNA, dendrimers NP=0.6:1, FIG. 11
Description: All animal procedures were conducted following the Animal Research Reporting of In Vivo Experiments and approved by the UK Home Office for the conduct of regulated procedures under license. For the data underlying FIG. 11, Balb/c mice aged 4 weeks were purchased from Jackon's Laboratory and left to acclimate in the new housing environment for 1-week upon their arrival. All mice were weighed and warmed for 15 min at 37 C in a heating chamber. The formulations were delivered intravenously (5 mL/kg) via the tail vein using 30 G insulin syringes (BD biosciences).
All mice were imaged 6 hours post injection. BLI was performed using an IVIS Lumina II (Perkin Elmer) imaging system. Mice were administered D-luciferin (GoldBio) at a dose of 10 uL/g. Mice were anaesthetised in a chamber with 2.5% isoflurane and then placed on a heated imaging platform while being maintained on 2.5% isoflurane. For the data underlying FIG. 11, mice were imaged 10 min post administration of D-luciferin with an exposure time set at 45 sec to ensure the signal acquired was within an effective detection range (binning medium). Bioluminescence signal was quantified by measuring photon flux (photons/s) using the Living Image software (Perkin Elmer). […] The organs were placed in the centre of imaging platform (Lumina II system) and signal was measured using the acquisition settings detailed above. […]

[2] = system: human THP-1 cells; test: eGFP mRNA transfection of human THP-1 macrophages, flow cytometry; type: cell-based; conditions: THP-1, FIG. 3
Description: THP-1 cells (a human leukaemia monocytic cell line) were sub-cultured in RPMI (with glutamax)+10% heat inactivated FBS (complete media) at 3E+5 cells/ml and passaged every 3-4 days. For macrophage polarisation 7.5E+6 cells were seeded in T75 flasks in a total of 20 ml complete media containing 5 ng/ml PMA (1:1000 of 5 ug/ml stock). The cells were transferred to the 37° C. incubator for overnight. After 24 hrs, THP-1 cells were washed with complete medium and a fresh flask complete medium (not containing PMA) was overlaid on the cells. After a further 72 hrs, the complete medium was exchanged for fresh complete media containing 20 ng/ml rhlL-4 (1:500 of 10 μg/ml stock). 24 hrs later the cells were harvested by firstly washing the cells with PBS followed by a 5 minute treatment at 37° C. with 5 mM EDTA (diluted in PBS). Cells were spun down at 300 g for 5 minutes and resuspended in a complete medium containing 20 ng/ml rhlL-4 at 2.4E+5 cells/mi. 500 ul of cells were seeded into each well on a 24-well plate and left overnight in the 37° C. incubator.
The medium overlaying the polarised THP-1 cells was aspirated and exchanged with 480 ul/well complete media containing 20 ng/ml rhlL-4. […]
Data were collected using a BD LSRFortessa I analyser running […] software (Beckton Dickinson). All collected data were analysed using FlowJo 10.0 software. […]

- delivery of luciferase mRNA cargo to lung and spleen (bioluminescence) [1]: further improved
Substance: (RHL)4(KRHL)2KGSC-NH2 [GSCG1,2-RHL]
- increase of transfection efficiency at NP=0.6:1 compared to NP=5:1 [2]: approximately 10%
